Measurements reported in ChEMBL document CHEMBL1145459, “Novel vanilloid receptor-1 antagonists: 2. Structure-activity relationships of 4-oxopyrimidines leading to the selection of a clinical candidate” (J Med Chem, 2007).
≈ marks a conversion by molar mass, not a printed value. Calls of active or inactive are those of the source. The rule behind the calls is not given here.

Legend:
[1] = biological target: T1, Transient receptor potential cation channel subfamily V member 1 (Rattus norvegicus, UniProt O35433); assay: Antagonist activity at rat TRPV1 expressed in CHO cells assessed as inhibition of acid-induced calcium influx; format: functional, cell-based
T1 sequence (O35433 whole entry): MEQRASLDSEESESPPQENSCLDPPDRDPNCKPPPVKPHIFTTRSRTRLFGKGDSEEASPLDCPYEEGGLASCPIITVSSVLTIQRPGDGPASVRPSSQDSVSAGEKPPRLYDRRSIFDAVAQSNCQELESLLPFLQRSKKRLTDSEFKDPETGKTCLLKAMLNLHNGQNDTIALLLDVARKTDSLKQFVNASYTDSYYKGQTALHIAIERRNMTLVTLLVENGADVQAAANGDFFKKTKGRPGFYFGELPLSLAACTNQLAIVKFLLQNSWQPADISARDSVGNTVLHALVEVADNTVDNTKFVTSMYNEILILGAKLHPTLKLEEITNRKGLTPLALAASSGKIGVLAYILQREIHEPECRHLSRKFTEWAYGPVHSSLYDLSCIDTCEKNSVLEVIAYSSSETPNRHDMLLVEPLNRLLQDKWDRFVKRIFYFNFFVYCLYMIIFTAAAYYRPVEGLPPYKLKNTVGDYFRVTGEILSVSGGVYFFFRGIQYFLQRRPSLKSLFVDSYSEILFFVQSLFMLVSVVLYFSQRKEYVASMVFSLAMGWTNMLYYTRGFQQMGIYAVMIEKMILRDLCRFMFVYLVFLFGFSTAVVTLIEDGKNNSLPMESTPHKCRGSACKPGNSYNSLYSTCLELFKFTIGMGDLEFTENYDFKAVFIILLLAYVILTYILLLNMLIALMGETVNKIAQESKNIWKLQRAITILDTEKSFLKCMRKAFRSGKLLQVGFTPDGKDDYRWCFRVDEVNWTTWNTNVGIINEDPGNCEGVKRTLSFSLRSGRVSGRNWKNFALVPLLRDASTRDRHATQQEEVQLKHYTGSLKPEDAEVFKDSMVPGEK

[2] = Metabolic stability in human liver microsomes assessed as clearance; format: ADME, Microsome
[3] = Solubility in simulated intestinal fluid by high-throughput automated format; format: physicochemical
[4] = Solubility in PBS by high-throughput automated format; format: physicochemical
[5] = Aqueous solubility in hydrochloric acid by high-throughput automated format; format: physicochemical
[6] = biological target: T2, Transient receptor potential cation channel subfamily V member 1 (Homo sapiens, UniProt Q8NER1); assay: Antagonist activity at human TRPV1 expressed in CHO cells assessed as inhibition of acid-induced calcium influx; format: functional, cell-based
T2 sequence (Q8NER1 whole entry): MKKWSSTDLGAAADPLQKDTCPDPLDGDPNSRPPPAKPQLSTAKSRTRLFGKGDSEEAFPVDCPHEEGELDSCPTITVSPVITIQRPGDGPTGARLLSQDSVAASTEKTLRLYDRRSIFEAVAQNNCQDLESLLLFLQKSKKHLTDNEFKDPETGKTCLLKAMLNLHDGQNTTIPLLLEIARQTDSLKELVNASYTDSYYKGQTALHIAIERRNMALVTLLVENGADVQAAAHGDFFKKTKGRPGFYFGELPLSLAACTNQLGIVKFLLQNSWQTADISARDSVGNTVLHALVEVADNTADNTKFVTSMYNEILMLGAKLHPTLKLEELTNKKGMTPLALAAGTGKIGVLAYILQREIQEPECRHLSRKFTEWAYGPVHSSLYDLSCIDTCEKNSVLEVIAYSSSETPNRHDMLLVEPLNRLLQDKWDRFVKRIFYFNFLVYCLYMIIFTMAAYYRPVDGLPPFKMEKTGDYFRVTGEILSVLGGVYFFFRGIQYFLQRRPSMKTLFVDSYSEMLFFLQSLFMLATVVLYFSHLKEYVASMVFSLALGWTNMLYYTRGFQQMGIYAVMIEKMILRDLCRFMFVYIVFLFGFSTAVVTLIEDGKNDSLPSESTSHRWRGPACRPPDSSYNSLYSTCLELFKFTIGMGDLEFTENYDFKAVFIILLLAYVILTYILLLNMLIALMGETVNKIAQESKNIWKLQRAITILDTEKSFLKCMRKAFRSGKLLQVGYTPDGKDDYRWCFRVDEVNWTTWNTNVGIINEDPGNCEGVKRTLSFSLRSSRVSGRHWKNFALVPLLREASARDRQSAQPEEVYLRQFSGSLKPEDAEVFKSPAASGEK

[7] = biological target: T2, Transient receptor potential cation channel subfamily V member 1; assay: Antagonist activity at human TRPV1 expressed in CHO cells assessed as inhibition of heat-induced calcium influx; format: functional, cell-based
[8] = In vivo clearance in Sprague-Dawley rat at 1 mg/kg, iv; format: ADME, organism-based; set-up: dose 1 mg/kg, route intravenous
[9] = AUC (0-infinity) in Sprague-Dawley rat at 1 mg/kg, iv; format: ADME, organism-based; set-up: time infinity, dose 1 mg/kg, route intravenous; conditions: plasma
[10] = biological target: T2, Transient receptor potential cation channel subfamily V member 1; assay: Antagonist activity at human TRPV1 expressed in CHO cells assessed as inhibition of capsaicin-induced calcium influx; format: functional, cell-based
[11] = Clearance in Sprague-Dawley rat at 1 mg/kg, iv; format: ADME, organism-based; set-up: dose 1 mg/kg, route intravenous; conditions: in vivo
[12] = Half life in Sprague-Dawley rat at 1 mg/kg, iv; format: ADME, organism-based; set-up: dose 1 mg/kg, route intravenous; conditions: in vivo
[13] = Bioavailability in fasted Sprague-Dawley rat at 5 mg/kg, po; format: ADME, organism-based; conditions: in vivo
[14] = Volume of distribution at steady state in Sprague-Dawley rat at 1 mg/kg, iv; format: ADME, organism-based; set-up: dose 1 mg/kg, route intravenous; conditions: in vivo, read-out: Vss
[15] = Metabolic stability in rat liver microsomes assessed as clearance; format: ADME, Microsome
[16] = biological target: T1, Transient receptor potential cation channel subfamily V member 1; assay: Antagonist activity at rat TRPV1 expressed in CHO cells assessed as inhibition of capsaicin-induced calcium influx; format: functional, cell-based
[17] = AUC (0 to infinity) in rat at 1 mg/kg, iv; format: ADME, organism-based; set-up: time infinity, dose 1 mg/kg, route intravenous; conditions: plasma
[18] = Bioavailability in dog at 1 mg/kg, po; format: ADME, organism-based, Canis lupus familiaris; conditions: in vivo
[19] = Clearance in dog at 1 mg/kg, iv; format: ADME, organism-based, Canis lupus familiaris; set-up: dose 1 mg/kg, route intravenous; conditions: in vivo
[20] = Half life in rat at 1 mg/kg, iv; format: ADME, organism-based; set-up: dose 1 mg/kg, route intravenous; conditions: in vivo
[21] = Clearance in monkey at 1 mg/kg, iv; format: ADME, organism-based, Macaca mulatta; set-up: dose 1 mg/kg, route intravenous; conditions: rhesus monkey, in vivo
[22] = Bioavailability in monkey at 1 mg/kg, po; format: ADME, organism-based, Macaca mulatta; conditions: rhesus monkey, in vivo
[23] = Volume of distribution at steady state in monkey at 1 mg/kg, iv; format: ADME, organism-based, Macaca mulatta; set-up: dose 1 mg/kg, route intravenous; conditions: rhesus monkey, in vivo, read-out: Vss
[24] = Half life in monkey at 1 mg/kg, iv; format: ADME, organism-based, Macaca mulatta; set-up: dose 1 mg/kg, route intravenous; conditions: rhesus monkey, in vivo
[25] = system: Rattus norvegicus; assay: Inhibition of capsaicin-induced flinching in Sprague-Dawley rat at 3 mg/kg, po upto 24 hrs; format: functional, organism-based; set-up: dose 3 mg/kg
[26] = system: Rattus norvegicus; assay: Efficacy in capsaicin-induced flinching in po dosed Sprague-Dawley rat; format: functional
[27] = AUC (0-infinity) in monkey at 1 mg/kg, iv; format: ADME, organism-based, Macaca mulatta; set-up: time infinity, dose 1 mg/kg, route intravenous; conditions: rhesus monkey, plasma
[28] = AUC (0-infinity) in dog at 1 mg/kg, iv; format: ADME, organism-based, Canis lupus familiaris; set-up: dose 1 mg/kg, route intravenous, time infinity; conditions: plasma
[29] = Half life in dog at 1 mg/kg, iv; format: ADME, organism-based, Canis lupus familiaris; set-up: dose 1 mg/kg, route intravenous; conditions: in vivo
[30] = system: Rattus norvegicus; assay: Inhibition of CFA-induced paw thermal hyperalgesia in Sprague-Dawley rat at 10 mg/kg, po relative to control; format: functional; set-up: scale not given: the % may be the effect or the level left
[31] = Volume of distribution at steady state in dog at 1 mg/kg, iv; format: ADME, organism-based, Canis lupus familiaris; set-up: dose 1 mg/kg, route intravenous; conditions: in vivo, read-out: Vss
[32] = Clearance in rat at 1 mg/kg, iv; format: ADME, organism-based; set-up: dose 1 mg/kg, route intravenous; conditions: in vivo
[33] = Bioavailability in rat at 1 mg/kg, po; format: ADME, organism-based; conditions: in vivo
[34] = Volume of distribution at steady state at 1 mg/kg, iv; format: ADME, organism-based; set-up: dose 1 mg/kg, route intravenous; conditions: rat, in vivo, read-out: Vss
[35] = system: Rattus norvegicus; assay: Inhibition of CFA-induced paw thermal hyperalgesia in po dosed Sprague-Dawley rat; format: functional; conditions: read-out: MED
[36] = Bioavailability in fasted Sprague-Dawley rat at 3 mg/kg, po; format: ADME, organism-based; conditions: in vivo
[37] = system: Rattus norvegicus; assay: Blockade of capsaicin-induced hypothermia in rat at 3 mg/kg, po by telemetry model; format: functional
[38] = Half life in rat; format: ADME, organism-based; conditions: in vivo

In the case of `FC(F)(F)c1ccc(-c2cc(Oc3ccc4ccccc4n3)ncn2)cc1`, the IC50 [1] is reported as > 4000 nM.

For `Nc1nc2c(Oc3cc(-c4ccc(C(F)(F)F)cc4)ncn3)cccc2[nH]c1=O`, the microsomal CLint [2] was < 14 µL/min/mg, the solubility [3] was 9.2 µg/mL (≈ 23 µM) and the solubility [4] was < 1 µg/mL. The solubility [5] was < 1 µg/mL, the IC50 [6] was 0.9 nM and the IC50 [7] was 0.4 nM. For the same compound, the clearance [8] was 4.33 mL/min/kg, the AUC(0-inf) [9] was 5140 ng·h/mL and the IC50 [10] was 0.8 nM. For the same compound, the clearance [11] was 3.28 mL/min/kg, the half-life [12] was 6 h and the bioavailability [13] was 7%. For the same compound, the Vd [14] was 1.69 L/kg and the microsomal CLint [15] was < 14 µL/min/mg.

In the case of `O=c1ccc2cccc(Oc3cc(-c4ccc(C(F)(F)F)cc4)ncn3)c2[nH]1`, the IC50 [16] is reported as > 4000 nM and the IC50 [1] is reported as > 4000 nM.

For `FC(F)(F)c1ccc(-c2cc(Oc3ccc4ccncc4c3)ncn2)cc1`, the IC50 [16] was 460 nM and the IC50 [1] was > 4000 nM.

For `CCC(=O)Nc1nc2c(Oc3cc(-c4ccc(C(F)(F)F)cc4)ncn3)cccc2s1`, the IC50 [1] was 1500 nM.

With `Nc1nc2c(Oc3cc(-c4ccc(C(F)(F)F)cc4)ncn3)cccc2s1` the microsomal CLint [2] was < 5 µL/min/mg, the IC50 [16] was 1.2 nM and the clearance [8] was 3.67 mL/min/kg. The IC50 [1] was > 4000 nM and the microsomal CLint [15] was 47 µL/min/mg.

For `CC(=O)Nc1nc2c(Oc3cc(-c4ccc(C(F)(F)F)cc4)ncn3)cccc2s1` [AMG-517], the microsomal CLint [2] was < 5 µL/min/mg, the AUC(0-inf) [17] was 8800 ng·h/mL and the bioavailability [18] was 23%. For the same compound, the clearance [19] was 2.33 mL/min/kg, the half-life [20] was 31 h and the solubility [3] was 6.6 µg/mL (≈ 15.3 µM). The solubility [4] was < 1 µg/mL, the solubility [5] was < 1 µg/mL and the clearance [21] was 0.5 mL/min/kg. The IC50 [6] was 0.62 nM, the bioavailability [22] was 52% and the Vd [23] was 2.3 L/kg. The IC50 [7] was 1.3 nM, the half-life [24] was 62 h and the Activity [25] was “Active”. For the same compound, the clearance [8] was 4.17 mL/min/kg, the ED50 [26] was 0.35 mg/kg and the AUC(0-inf) [9] was 5400 ng·h/mL. The AUC(0-inf) [27] was 37000 ng·h/mL, the IC50 [10] was 0.76 nM and the AUC(0-inf) [28] was 7400 ng·h/mL. For the same compound, the clearance [11] was 3.17 mL/min/kg, the half-life [12] was 6.3 h and the half-life [29] was 41 h. The Activity [30] was 35%, the Vd [31] was 7 L/kg and the clearance [32] was 2 mL/min/kg. For the same compound, the bioavailability [33] was 51%, the Vd [14] was 1.56 L/kg and the Vd [34] was 4 L/kg. The microsomal CLint [15] was 50 µL/min/mg, the minimal effective dose [35] was 0.83 mg/kg and the bioavailability [36] was 32%.

With `FC(F)(F)c1ccc(-c2cc(Oc3ccnc4ccccc34)ncn2)cc1` the IC50 [16] was > 4000 nM and the IC50 [1] was > 4000 nM.

In the case of `Nc1cnc2cccc(Oc3cc(-c4ccc(C(F)(F)F)cc4)ncn3)c2n1`, the microsomal CLint [2] is reported as < 14 µL/min/mg, the IC50 [16] is reported as 63 nM and the Activity [37] is reported as 100%. For the same compound, the clearance [8] was 71.7 mL/min/kg, the IC50 [1] was 16 nM and the microsomal CLint [15] was 15 µL/min/mg.

With `CC(=O)N(C)c1nc2c(Oc3cc(-c4ccc(C(F)(F)F)cc4)ncn3)cccc2s1` the IC50 [16] was > 4000 nM and the IC50 [1] was 860 nM.

`FC(F)(F)c1ccc(-c2cc(Oc3ccc4cccnc4c3)ncn2)cc1` showed a half-life [38] of 2.8 h.
